Holding throughout (assay type): cell-based
One assay has as its system HOP-92. The assay can be described thus: NCI-60 single dose screen, HOP-92. Conditions: Homo sapiens, NSCLC, single concentration 10^−5 M, read-out: IGP (inhibition growth percent) HOP-92. In short, it runs like this: (§1)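 At the National Cancer Institute, cells from the sixty-line panel are treated with a fixed 10 μM compound concentration. The DTP screening procedure then gives the percentage by which cell growth is reduced.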

The subject of the next assay is PC-3. The assay can be described thus: NCI-60 single dose screen, PC-3. Particulars: Homo sapiens, Prostate cancer, single concentration 10^−5 M, read-out: IGP (inhibition growth percent) PC-3. In short, it runs like this:
as §1

The test system of the next assay is NCI-H522. The assay can be described thus: NCI-60 single dose screen, NCI-H522. Particulars: Homo sapiens, NSCLC, single concentration 10^−5 M, read-out: IGP (inhibition growth percent) NCI-H522. In short, it runs like this: as §1
For a further assay, the system named is HCT-116 (colon cancer). The assay is described as follows: MTT cell viability assay, HCT-116. Conditions: Homo sapiens, 72 h, mean ± SD. (In general: Tetrazolium assays rely on reduction of a dye to a coloured formazan, in cell work by metabolically active cells.)
The next assay concerns A549/ATCC. The assay can be described thus: NCI-60 single dose screen, A549/ATCC. Particulars: Homo sapiens, A549, NSCLC; single concentration 10^−5 M; read-out: IGP (inhibition growth percent) A549/ATCC. In short, it runs like this:
as §1

The test system of the next assay is UACC-62. The assay is described as follows: NCI-60 single dose screen, UACC-62. Particulars: Homo sapiens, Melanoma, single concentration 10^−5 M, read-out: IGP (inhibition growth percent) UACC-62. Put shortly: as §1
For the next assay, the system named is HaCaT. The assay is described as follows: Cytotoxic effect against non-carcinogenic cell line HaCaT. Particulars: for IC50: Homo sapiens, HaCaT, non-carcinogenic cell line, mean ± SD; for activity against HCT-116 fold higher compared with HaCaT: selectivity HCT-116 vs HaCaT; for inhibition of growth of HaCaT cells fold weaker than HeLa cells: selectivity HeLa vs HaCaT. The procedure:
For the compounds with the strongest cytotoxicity (12, 18, 22, and 24), an investigation of cytotoxic effect against non-carcinogenic cell line HaCaT was done. […] The activity against HCT-116 was 1.7-, 1.6-, 1.5-, and 1.4-fold higher when compared with HaCaT cell line, for compounds 12, 18, 22, and 24, respectively.
Cell viability was determined using the MTT (3-(4,5-dimethylthiazol-2-yl)-2,5-diphenyltetrazolium bromide) assay. Cells were seeded in 96-well plates at a density of 5 × 10^3 cells/well and treated for 72 h with the examined compounds in the concentration range 1–100 μM (1, 10, 25, 50, and 100 μM). Following treatment, MTT (0.5 mg/cm^3) was added to the medium and cells were further incubated for 2 h at 37 °C. Cells were lysed with DMSO and the absorbance of the formazan solution was measured at 550 nm with a plate reader (Victor, 1420 multilabel counter). […] The experiment was performed in triplicate. Values are expressed as the mean ± SD of at least three independent experiments.

For the next assay, the system named is MOLT-4. The assay can be described thus: NCI-60 single dose screen, MOLT-4. Conditions: Homo sapiens, Leukemia, single concentration 10^−5 M, read-out: IGP (inhibition growth percent) MOLT-4. In short, it runs like this:
as §1

The source of these data is PMC6133092, “Synthesis of 2-alkylthio-N-(quinazolin-2-yl)benzenesulfonamide derivatives: anticancer activity, QSAR studies, and metabolic stability” (Monatshefte Fur Chemie, 2018).

Take `O=C(Nc1ccccc1)c1cc(S(=O)(=O)Nc2nc(-c3ccccc3)c3ccccc3n2)c(SCc2ccccc2)cc1Cl` [Compound 18, 2-Benzylthio-4-chloro-5-phenylcarbamoyl-N-(4-phenylquinazolin-2-yl)benzenesulfonamide]: the inhibition at 10 µM with HOP-92 was 26%; in the assay on PC-3 it was 24%; in the assay with NCI-H522 it was 25%; in the assay on A549/ATCC, around 50%; with UACC-62 it was 39%; in the assay with MOLT-4, 36%. For the same molecule, the IC50 (commonly the concentration at which inhibition is half-maximal) was 42 ± 1 µM with HCT-116 (colon cancer) and 68 ± 2 µM in the assay with HaCaT. The “activity against HCT-116 fold higher compared with HaCaT” value (shortened to “activity against HCT-116 fold higher”) in the assay on HaCaT came to 1.6 fold. The “inhibition of growth of HaCaT cells fold weaker than HeLa cells” value in the assay on HaCaT is recorded as 1.5 fold.

Consider `O=C(Nc1ccc(Cl)cc1)c1cc(S(=O)(=O)Nc2nc(-c3ccccc3)c3ccccc3n2)c(SCc2ccccc2)cc1Cl` [Compound 22, 2-Benzylthio-4-chloro-5-(4-chlorophenylcarbamoyl)-N-(4-phenylquinazolin-2-yl)benzenesulfonamide], for which the inhibition at 10 µM was 34% with HOP-92; 44% with PC-3; 35% with NCI-H522; around 50% with A549/ATCC; 40% in the assay on UACC-62; 52% with MOLT-4. Further, the IC50 amounted to 39 ± 1 µM in the assay with HCT-116 (colon cancer) and 59 ± 1 µM with HaCaT. For the same molecule, the “activity against HCT-116 fold higher” value in the assay with HaCaT came out at 1.5 fold. Further, the “inhibition of growth of HaCaT cells fold weaker than HeLa cells” value in the assay on HaCaT is 1.4 fold.

Take `Cc1ccc(NC(=O)c2cc(S(=O)(=O)Nc3nc(-c4ccccc4)c4ccccc4n3)c(SCc3ccccc3)cc2Cl)cc1` [Compound 24, 2-Benzylthio-4-chloro-5-(4-methylphenylcarbamoyl)-N-(4-phenylquinazolin-2-yl)benzenesulfonamide]: the inhibition at 10 µM in the assay on HOP-92 is 26%; in the assay with PC-3, 49%; with NCI-H522, 28%; in the assay with A549/ATCC it was around 50%; in the assay on UACC-62, 28%; with MOLT-4, 21%. In addition, the IC50 in the assay with HCT-116 (colon cancer) is 41 ± 1 µM; in the assay on HaCaT it was 58 ± 1 µM. In addition, the “activity against HCT-116 fold higher” value in the assay with HaCaT is given as 1.4 fold. Moreover, the “inhibition of growth of HaCaT cells fold weaker than HeLa cells” value in the assay on HaCaT is 1.3 fold.
